Entries after “also recorded” stand apart in the source; their conditions may differ.
Columns and labels:
Demodex = assay: Human in vivo testing of topical compositions (inventor's self-test, once daily at night) on signs and symptoms of demodicosis
Description: Demodectic mites rapidly desiccate and die when removed from the body and cannot reproduce in vitro, and skin conditions triggered by demodex are part of a complex innate immune response not yet fully explained by medical research. […] Treatment is preferentially once-daily, at night, with topical applications, of a rinse-off shampoo/shower gel, and of a leave-on skin lotion. Treatment of the inflammatory response to demodex with compositions comprising the invention is novel and not previously reported. Treatment of the inflammatory response to demodex includes treatment of type 1 flushing rosacea, type 2 acne rosacea, type 4 ocular rosacea, demodicosis gravis, granulomatous rosacea, and pityriasis folliculorum, and treatment of demodicosis in mammalian quadrupeds, namely, demodectic mange.
Sebaceous glands and meibomian glands clogged by mite-detritus atrophy somewhat, extending the time for complete meibomian gland and pilosebaceous unit healing to approximately 110 days.^12 The foregoing results are consistent with the suppression or eradication of demodectic mites, establishing piroctone olamine treatment as anti-demodectic, as shown by the reduction or elimination of blepharitis, meibomian gland dysfunction, and papules about the eyelids, nose, lips, and lip margins.
The rinse-off cleanser of the compositions comprising the invention, is used as a typical topical shampoo/shower gel, and can be used over the entire scalp and body, with the exception that the rinse-off cleanser is applied to a wet body and lathered without running shower-water, so that the cleanser can be massaged onto the skin and scalp for 3 to 5 minutes, paying particular attention to the face and margins of the eyelids, and then rinsed off. Neither composition is intended to be applied directly onto the cornea, as the eyes are expected to be shut when applying either composition.
The leave-on lotion described herein is used as any typical lotion, and can be used over the entire body, paying particular attention to the face and margins of the eyes, preferentially at night. […]

[1] = usage thousands of time in excess of the compositions disclosed; cited from earlier work
[2] = cited from earlier work
Malassezia = assay: Self-treatment of seborrheic dermatitis with climbazole topical products; assay type: in vivo, human; settings: rinse-off shampoo/shower gel and leave-on lotion with 0.07% climbazole as active ingredient, MCT oil base
Description: A brief history underscores the relevance of the test results. […] Dermatitis caused a severe impairment in the quality of life. Therefore, beginning three years ago, the inventor studied dermal inflammations, to conduct an accurate differential diagnosis and treat their skin condition. […] Hegor's product however contains sodium lauryl sulfate, which irritates the skin and so this shampoo cannot be used as a leave-on lotion. Moreover, all commercial lotions are formulated with oils with carbon-chain lengths longer than 10 such that Malassezia metabolizes all commercial lotions, which greatly exacerbated the inventor's seborrheic dermatitis. (See, non-patent reference number 30, by Wilde.) Dissatisfied with commercial products that made seborrheic skin conditions worse, sixteen months ago the inventor compounded topical compositions, a rinse-off shampoo/shower gel and a leave-on lotion, where the active ingredient was 0.07% climbazole and the base-oil was exclusively MCT oil (caprylic/capric oil), comprised only of carbon chain lengths of C8 and C10. While using this compounded topical treatment, all symptoms of seborrheic dermatitis induced by Malassezia were eliminated approximately one year ago. […]

SMILES	anti-demodectic treatment effect (concluded from symptom relief) (Demodex; after compounding and testing the compositions, human test subject)	symptoms and signs of blepharitis, meibomian gland dysfunction, and papules about the eyelid margins and lip margins (Demodex; topical compositions with 0.14% piroctone olamine as oil in water emulsion, rinse-off shampoo/shower gel and leave-on lotion once daily at night)	toxicity in topical usage [1]	solubility in water [2]	symptoms of seborrheic dermatitis induced by Malassezia (Malassezia)	red eye and dry eye symptoms (Demodex; under 0.07% climbazole-only compositions, after seborrheic dermatitis symptoms were eliminated)
Cc1cc(CC(C)CC(C)(C)C)n(O)c(=O)c1.NCCO (stereo not shown) [piroctone olamine, 1-Hydroxy-4methyl-6-(2,4,4-trimethylpentyl)-2(1H) pyridinone, 2-aminoethanol salt]	effective anti-demodectic treatment	reduced and eliminated; also recorded: rapid and dramatic reduction	non-toxic	barely soluble		
CC(C)(C)C(=O)C(Oc1ccc(Cl)cc1)n1ccnc1 (stereo not shown) [climbazole, 1-(4-Chlorophenoxy)-1-(imidazol-1-yl)-3,3-dimethyl-2-butanone]				barely soluble	eliminated	increased significantly

— patent US20160287566A1, “Anti-demodectic active agents and topical compositions for the treatment of demodicosis in humans and animals” (priority 2015, published 2016)
